Measurements taken from patent US11214590B2, “Photoresponsive nucleotide analog capable of photocrosslinking in visible light region” (JAPAN ADVANCED INSTITUTE OF SCIENCE AND TECHNOLOGY, priority 2017, dated 2022).

Assays:
[1] = tested on: cODN; test: Photocrosslinking test with SPCX, UPLC analysis; assay type: biochemical
Protocol: The experiment was carried out as described below using the following ODN (^SPCX) and cODN:
10 μM of ODN (^SPCX) and 10 μM of cODN were dissolved in a 50 mM cacodylic acid buffer (pH 7.4) containing 100 mM of NaCl, and then heated at 90° C. for 1 minute, and then cooled at 4° C. Irradiation with light having 450 nm (LED) was carried out at 4° C. Analysis was then carried out by UPLC. The analysis conditions for UPLC are as follows. The measurement was carried out at a measurement wavelength of 260 nm and at a flow rate of 0.2 mL/min, using a mixed solution of ammonium formate and acetonitrile in which the initial conditions were 99% of ammonium formate and […], and 85% of ammonium formate and 15% of acetonitrile at the end of the analysis (10 minutes).

[2] = tested on: nucleic acids; settings: irradiation with light having 350 nm; cited from earlier work

Q: With 5'-TGCA^SPCXCCGT-3' [ODN (^SPCX)] as the compound, how does the “progress of photocrosslinking reaction (UPLC peaks)” value ([1]; 450 nm (LED), 4° C., 10 μM ODN and 10 μM cODN) read?
A: Its value is “progress of the photocrosslinking reaction was confirmed”.

Q: Which results are given for OC[C@H]1O[C@@H](n2c3ccccc3c3cc4ccc(=S)oc4cc32)CC1O (stereo partly shown) [^SPCX]?
A: photoreactivity compared with pyranocarbazole (PCX) ([1]; irradiation with light having 450 nm): higher photoreactivity; light irradiation time giving photocrosslinking ([1]; irradiation with light having 450 nm, 4° C.): 10 s

Q: Which “time required for photoreaction” value [2] does the source give for O=c1ccc2cc3ccoc3cc2o1 [psoralen] here?
A: The value was “several hours”.
